Assay results as given in publication PMC9848300, “Discovery of novel enasidenib analogues targeting inhibition of mutant isocitrate dehydrogenase 2 as antileukaemic agents” (Journal of Enzyme Inhibition and Medicinal Chemistry, 2023).
Where two headings read alike, the source gives them in different places.

Tests used:
CCRF-CEM = experiment: NCI 60 antitumor screening (single dose / five doses); format: cell-based; details: Homo sapiens, read-out: Growth inhibition percentage (GI %)
K-562 = experiment: as above; format: cell-based; details: Homo sapiens
MOLT-4 = experiment: as above; format: cell-based; details: Homo sapiens
SR = experiment: as above; format: cell-based; details: Homo sapiens, read-out: Growth inhibition percentage (GI %)
EKVX = experiment: as above; format: cell-based; details: Homo sapiens, read-out: Growth inhibition percentage (GI %)
HOP-92 = experiment: as above; format: cell-based; details: Homo sapiens
NCI-H460 = experiment: NCI 60 antitumor screening (single dose); format: cell-based; details: Homo sapiens; NCI-H460 (non-small cell lung cancer), single dose 10 μM; read-out: Growth inhibition percentage (GI %)
Summary of the method: (§1)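 Values are GI% (100 minus percent growth, G%) from the NCI 60 cell line screen at one 10 μM concentration. Tests were done in triplicate under NCI protocol, with a mean across the whole panel reported as well.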

OVCAR-3 = experiment: NCI 60 antitumor screening (single dose); format: cell-based; details: Homo sapiens; OVCAR-3 (ovarian cancer), single dose 10 μM; read-out: Growth inhibition percentage (GI %)
Summary of the method: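 NCI-60 protocol: single 10 μM dose against each cell line, run in triplicate. Percent growth (G%) of treated cells measured and growth inhibition reported as GI% = 100 − G%; panel mean also given.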

SF-268 = experiment: NCI 60 antitumor screening (single dose); format: cell-based; details: Homo sapiens; SF-268 (CNS cancer), single dose 10 μM; read-out: Growth inhibition percentage (GI %)
Summary of the method: as §1

COLO 205 = experiment: NCI 60 antitumor screening (single dose / five doses); format: cell-based; details: Homo sapiens
HT29 = experiment: as above; format: cell-based, human; details: Homo sapiens
SW-620 = experiment: as above; format: cell-based, human; details: Homo sapiens
SF-539 = experiment: as above; format: cell-based; details: Homo sapiens
MALME-3M = experiment: as above; format: cell-based; details: Homo sapiens, read-out: Growth inhibition percentage (GI %)
MDA-MB-435 = experiment: as above; format: cell-based; details: Homo sapiens
SK-MEL-2 = experiment: as above; format: cell-based; details: Homo sapiens
SK-MEL-28 = experiment: as above; format: cell-based; details: Homo sapiens
SK-MEL-5 = experiment: as above; format: cell-based; details: Homo sapiens
UACC-257 = experiment: as above; format: cell-based; details: Homo sapiens
UACC-62 = experiment: as above; format: cell-based; details: Homo sapiens
IGROV1 = experiment: as above; format: cell-based; details: Homo sapiens
786-0 = experiment: as above; format: cell-based; details: Homo sapiens
A498 = experiment: as above; format: cell-based; details: Homo sapiens
ACHN = experiment: as above; format: cell-based; details: Homo sapiens, read-out: Growth inhibition percentage (GI %)
SN 12C = experiment: as above; format: cell-based; details: Homo sapiens, SN12C, read-out: Growth inhibition percentage (GI %)
UO-31 = experiment: as above; format: cell-based; details: Homo sapiens
MDA-MB-231/ATCC = experiment: as above; format: cell-based; details: Homo sapiens
MDA-MB-468 = experiment: as above; format: cell-based; details: Homo sapiens
[1] = CCRF-CEM (leukaemia), single dose 10 μM
[2] = K562, K-562 (leukaemia), single dose 10 μM, read-out: Growth inhibition percentage (GI %)
[3] = MOLT-4 (leukaemia), single dose 10 μM, read-out: Growth inhibition percentage (GI %)
[4] = SR (leukaemia), single dose 10 μM
[5] = EKVX (non-small cell lung cancer), single dose 10 μM
[6] = HOP-92 (non-small cell lung cancer), single dose 10 μM, read-out: Growth inhibition percentage (GI %)
[7] = COLO 205 (colon cancer), single dose 10 μM, read-out: Growth inhibition percentage (GI %)
[8] = HT-29, HT29 (colon cancer), single dose 10 μM, read-out: Growth inhibition percentage (GI %)
[9] = SW-620 (colon cancer), single dose 10 μM, read-out: Growth inhibition percentage (GI %)
[10] = SF-539 (CNS cancer), single dose 10 μM, read-out: Growth inhibition percentage (GI %)
[11] = MALME-3M (melanoma), single dose 10 μM
[12] = MDA-MB-435 (melanoma), single dose 10 μM, read-out: Growth inhibition percentage (GI %)
[13] = SK-MEL-2 (melanoma), single dose 10 μM, read-out: Growth inhibition percentage (GI %)
[14] = SK-MEL-28 (melanoma), single dose 10 μM, read-out: Growth inhibition percentage (GI %)
[15] = SK-MEL-5 (melanoma), single dose 10 μM, read-out: Growth inhibition percentage (GI %)
[16] = UACC-257 (melanoma), single dose 10 μM, read-out: Growth inhibition percentage (GI %)
[17] = UACC-62 (melanoma), single dose 10 μM, read-out: Growth inhibition percentage (GI %)
[18] = IGROV-1, IGROV1 (ovarian cancer), single dose 10 μM, read-out: Growth inhibition percentage (GI %)
[19] = 786-0, 786-0 (renal cancer), single dose 10 μM, read-out: Growth inhibition percentage (GI %)
[20] = A498 (renal cancer), single dose 10 μM, read-out: Growth inhibition percentage (GI %)
[21] = ACHN (renal cancer), single dose 10 μM
[22] = SN 12C (renal cancer), single dose 10 μM
[23] = UO-31 (renal cancer), single dose 10 μM, read-out: Growth inhibition percentage (GI %)
[24] = MDA-MB-231/ATCC (breast cancer), single dose 10 μM, read-out: Growth inhibition percentage (GI %)
[25] = MDA-MB-468 (breast cancer), single dose 10 μM, read-out: Growth inhibition percentage (GI %)

O=[N+]([O-])c1cc(/C=N/Nc2nc(N/N=C/c3ccc(Cl)c([N+](=O)[O-])c3)nc(N3CCCCC3)n2)ccc1Cl [compound 7i, 2,4-Bis[(E)-2-[(4-Chloro-3-nitrophenyl)methylidene]hydrazin-1-yl]-6-(piperidin-1-yl)-1,3,5-triazine]
inhibition at 10 µM (CCRF-CEM; CCRF-CEM): 38.7%
inhibition at 10 µM (K-562; K562, read-out: Growth inhibition percentage (GI %)): 68.3%
inhibition at 10 µM (MOLT-4; MOLT-4, read-out: Growth inhibition percentage (GI %)): 57.7%
inhibition at 10 µM (SR; SR): 36.8%
inhibition at 10 µM (EKVX; EKVX): 22%
inhibition at 10 µM (HOP-92; HOP-92, read-out: Growth inhibition percentage (GI %)): -23.1%
inhibition at 10 µM (NCI-H460): 1.33%
inhibition at 10 µM (OVCAR-3): 107%
inhibition at 10 µM (SF-268): 35.1%
inhibition at 10 µM (COLO 205; COLO 205, read-out: Growth inhibition percentage (GI %)): -0.27%
inhibition at 10 µM (HT29; HT-29, read-out: Growth inhibition percentage (GI %)): 92.6%
inhibition at 10 µM (SW-620; SW-620, read-out: Growth inhibition percentage (GI %)): 36.3%
inhibition at 10 µM (SF-539; SF-539, read-out: Growth inhibition percentage (GI %)): 63.7%
inhibition at 10 µM (MALME-3M; Malme-3M): -1.47%
inhibition at 10 µM (MDA-MB-435; MDA-MB-435, read-out: Growth inhibition percentage (GI %)): 19.3%
inhibition at 10 µM (SK-MEL-2; SK-MEL-2, read-out: Growth inhibition percentage (GI %)): 37.8%
inhibition at 10 µM (SK-MEL-28; SK-MEL-28, read-out: Growth inhibition percentage (GI %)): 22.2%
inhibition at 10 µM (SK-MEL-5; SK-MEL-5, read-out: Growth inhibition percentage (GI %)): 48.9%
inhibition at 10 µM (UACC-257; UACC-257, read-out: Growth inhibition percentage (GI %)): 56.9%
inhibition at 10 µM (UACC-62; UACC-62, read-out: Growth inhibition percentage (GI %)): 34%
inhibition at 10 µM (IGROV1; IGROV-1, read-out: Growth inhibition percentage (GI %)): 47.2%
inhibition at 10 µM (786-0; 786-0, read-out: Growth inhibition percentage (GI %)): -8.84%
inhibition at 10 µM (A498; A498, read-out: Growth inhibition percentage (GI %)): -8.06%
inhibition at 10 µM (ACHN; ACHN): 64.8%
inhibition at 10 µM (SN 12C): 27.7%
inhibition at 10 µM (UO-31; UO-31, read-out: Growth inhibition percentage (GI %)): 52.5%
inhibition at 10 µM (MDA-MB-231/ATCC; MDA-MB-231, read-out: Growth inhibition percentage (GI %)): 51.7%
inhibition at 10 µM (MDA-MB-468; MDA-MB-468, read-out: Growth inhibition percentage (GI %)): 31.2%

Oc1ccc(/C=N/Nc2nc(N/N=C/c3ccc(O)c(O)c3)nc(N3CCCCC3)n2)cc1O [compound 7j, 4-[(1e)-(2-{4-[(E)-2-[(3,4-Dihydroxyphenyl)methylidene]hydrazin-1-yl]-6-(piperidin-1-yl)-1,3,5-triazin-2-yl}hydrazin-1-ylidene)methyl]benzene-1,2-diol]
inhibition at 10 µM (CCRF-CEM; [1]): 9.46%
inhibition at 10 µM (K-562; [2]): 6.41%
inhibition at 10 µM (MOLT-4; [3]): 6.3%
inhibition at 10 µM (SR; [4]): 25.9%
inhibition at 10 µM (EKVX; [5]): 1.58%
inhibition at 10 µM (HOP-92; [6]): -9.47%
inhibition at 10 µM (NCI-H460): 0.77%
inhibition at 10 µM (OVCAR-3): 5.01%
inhibition at 10 µM (SF-268): -2.56%
inhibition at 10 µM (COLO 205; [7]): -6.39%
inhibition at 10 µM (HT29; [8]): -13.4%
inhibition at 10 µM (SW-620; [9]): 6.35%
inhibition at 10 µM (SF-539; [10]): 1.16%
inhibition at 10 µM (MALME-3M; [11]): 6.88%
inhibition at 10 µM (MDA-MB-435; [12]): -1.68%
inhibition at 10 µM (SK-MEL-2; [13]): 9.62%
inhibition at 10 µM (SK-MEL-28; [14]): -7.04%
inhibition at 10 µM (SK-MEL-5; [15]): 4.85%
inhibition at 10 µM (UACC-257; [16]): -8.89%
inhibition at 10 µM (UACC-62; [17]): 3.56%
inhibition at 10 µM (IGROV1; [18]): 5.35%
inhibition at 10 µM (786-0; [19]): -1.22%
inhibition at 10 µM (A498; [20]): -2.84%
inhibition at 10 µM (ACHN; [21]): 6.6%
inhibition at 10 µM (SN 12C; [22]): 4.32%
inhibition at 10 µM (UO-31; [23]): 15.3%
inhibition at 10 µM (MDA-MB-231/ATCC; [24]): 12.8%
inhibition at 10 µM (MDA-MB-468; [25]): 10.2%

C(=N\Nc1nc(N/N=C/c2ccc3c(c2)OCO3)nc(N2CCCCC2)n1)/c1ccc2c(c1)OCO2 [compound 7k, 2,4-Bis[(E)-2-(2H-1,3-Benzodioxol-5-ylmethylidene)hydrazin-1-yl]-6-(piperidin-1-yl)-1,3,5-triazine]
inhibition at 10 µM (CCRF-CEM; [1]): 79.6%
inhibition at 10 µM (K-562; [2]): 58.9%
inhibition at 10 µM (MOLT-4; [3]): 43.7%
inhibition at 10 µM (SR; [4]): 99.9%
inhibition at 10 µM (EKVX; [5]): 6.27%
inhibition at 10 µM (HOP-92; [6]): 4.01%
inhibition at 10 µM (NCI-H460): 9.41%
inhibition at 10 µM (OVCAR-3): -5.21%
inhibition at 10 µM (SF-268): -0.46%
inhibition at 10 µM (COLO 205; [7]): 14.1%
inhibition at 10 µM (HT29; [8]): 61.8%
inhibition at 10 µM (SW-620; [9]): 17.6%
inhibition at 10 µM (SF-539; [10]): 12.4%
inhibition at 10 µM (MALME-3M; [11]): -20.2%
inhibition at 10 µM (MDA-MB-435; [12]): 1.52%
inhibition at 10 µM (SK-MEL-2; [13]): -2.84%
inhibition at 10 µM (SK-MEL-28; [14]): -8.67%
inhibition at 10 µM (SK-MEL-5; [15]): 3.15%
inhibition at 10 µM (UACC-257; [16]): -7.99%
inhibition at 10 µM (UACC-62; [17]): -2.37%
inhibition at 10 µM (IGROV1; [18]): 23.1%
inhibition at 10 µM (786-0; [19]): 13.4%
inhibition at 10 µM (A498; [20]): 48.3%
inhibition at 10 µM (ACHN; [21]): 5.09%
inhibition at 10 µM (SN 12C; [22]): 20.3%
inhibition at 10 µM (UO-31; [23]): 25.6%
inhibition at 10 µM (MDA-MB-231/ATCC; [24]): 9.3%
inhibition at 10 µM (MDA-MB-468; [25]): 18.4%
